The values below come from US11065335B2, “Methods of treating leukemia using compositions containing bis(benzylthio)octanoic acid and ion pairs thereof” (Rafael Pharmaceuticals, Inc., priority 2007, dated 2021).

Series [1] deals with BXPC3 human pancreatic cancer cells. The series can be described thus: PI/Annexin Alexa Fluor 488 staining, FACS, type of cell death. It counts as cell-based. The following applies: 300 μM of CPI-613; 24 hours.
Excerpt: Apoptotic cells will stain Annexin V positive but PI negative because the PI cannot cross the intact cell membrane. Necrotic cells will stain positive for both Annexin V and PI because the cell membrane is not intact.
BxPC3 human pancreatic cancer cells were used in this investigation. These tumor cells were originally obtained from American Type Cell Culture (ATCC, Manassas, Va.). […] Cells were split at a ratio of 1:10 every 2-3 days by trypsinization and resuspended in fresh medium in a new flask. Cells were harvested for experiments in the same way at 70-90% confluency.
2) A 1 mL aliquot of each test condition was added to corresponding well. Each treatment condition was run in duplicate. Cells were incubated for 24 hours with test conditions prior to PI/Annexin Staining.
3) After 24 hours, cells, including floating cells, with media were harvested and centrifuged at 1,400 RPM for 5 minutes.
4) For all samples the supernatant was aspired off, and the pellet was resuspended in 3 mL PBS and then centrifuged again at 1,400 RPM for 5 minutes, for a total of 2 washes.
Cells were incubated with PI/Annexin V for 8 minutes.
6) The reaction was stopped by adding 400 μL 1× Annexin V binding buffer.
7) Samples were then taken to FACS facility to be read on the FACS Scan Flow Cytometer.
In series [2] the test system is A2780 human ovarian cancer cells. The series can be described thus: CellTiter Glo cell viability assay, A2780 cells. Here is the method: (§1) Two types of human tumor cells were used in this investigation: BXPC3 human pancreatic cancer cells and A2780 human ovarian cancer cells. The BXPC3 cells were originally obtained from American Type Cell Culture (ATCC). The ovarian tumor cells were gifts from Roswell Park Cancer Institute, Buffalo, N.Y. All tumor cells were maintained at 37° C. in a humidified 5% CO2 atmosphere in T75 tissue culture flasks containing 20 mL of Roswell Park Memorial Institute (RPMI) 1640 containing 2 mM L-glutamine, 10% fetal bovine serum (FBS) and 1% penicillin and streptomycin (100 IU/mL penicillin and 100 μg/mL streptomycin). The tumor cells were split at a ratio of 1:5 every 4-5 days by trypsinization and resuspended in fresh medium in a new flask. Cells were harvested for experiments at 70-90% confluency.
(§2) CPI-613 (i.e., 6,8-bis(benzylthio)octanoic acid) stock solutions at concentrations of 8, 4, 2, 1.5 and 0.5 mM were prepared in the appropriate vehicles. The molar ratio of vehicle to CPI-613 was maintained at 8:1. The corresponding vehicle concentrations were 64, 32, 16, 12, and 4 mM respectively. A sixty-four mM aliquot of vehicle was dissolved in 10 mL of water. Next, 8 mM of CPI-613 was added and the mixture was stirred until a clear solution was obtained. […] A 5 μL aliquot of this stock solution was added to 95 μL of tumor cells in media. Upon dilution in the wells, the corresponding drug concentrations were 400, 200, 100, 75 and 25 μM respectively.
(§3) For the sodium salt and potassium salt form of CPI-613, 1 equivalent of CPI-613 solid was dissolved in water. Sixty-two mg of CPI-613 (0.00016 mol) was added to 10 mL of water, then 165 μL of 1M NaOH or KOH was added and stirred until a clear solution was obtained. This gave a 16 mM solution. The resulting 16 mM solution was then serially diluted, thereby providing 8 mM and 4 mM solutions of the CPI-613 salt form. For the ammonium salt, vehicle to drug ratio was maintained at 8:1 and the formulation was prepared using procedures analogous to those described above in Section 2 relating to preparation of CPI-613 formulations in different vehicles.
(§4) CPI-613 formulated in 1M triethanolamine (TEA) was used as an internal control during formulation screening. To prepare a 16 mM of working stock of CPI-613, 50 mg/mL of CPI-613 (128.66 mM of CPI-613 in 1M TEA) was diluted in complete cell culture media containing 10% FBS. That is, 310 μL of a 128.66 mM solution of CPI-613 in 1M TEA was added to 2.19 mL of cell culture media. This stock was further diluted serially in complete media to give 8 mM, 4 mM 2 mM, 1.5 mM and 0.5 mM working solutions. On the day of testing, 5 μL of this working solution was added to 95 μL of cell culture media (20 fold dilution) resulting final concentrations of 400, 200, 100, 75 and 25 μM CPI-613, respectively. The ratio of CPI-613 to TEA was maintained at 1:8 ratio at all times.
(§5) The cell viability of CPI-613 formulations formulated at a ratio of 1:8, CPI-613 to vehicle, was assessed by exposing the A2780 ovarian tumor cells and BXPC3 human pancreatic cancer cells to the following CPI-613 concentrations: 400 μM (3200 μM vehicle), 200 μM (1600 μM vehicle), 100 μM (800 μM vehicle), 75 μM (600 μM vehicle) and 25 μM (200 μM vehicle) The impact of corresponding vehicles at 3200, 1600 and 800 μM concentrations was also tested in tumor cells for cell viability. […] CPI-613 in TEA was used as an internal control. The tumor cells were treated for 24 hrs with the test article in serum-containing medium. After 24 hrs of treatment the number of viable tumor cells was determined.
(§6) The number of cells targeted for the study was 4×10^3 per well in 100 μL of medium. The actual number of cells were counted and seeded in the wells of a 96 well-plate. The cells were incubated for ˜24 hrs before addition of CPI-613.
(§7) For each cell line the concentrations of test articles or vehicles specified above was used.

Series [3] relates to BXPC3 human pancreatic cancer cells. Description: CellTiter Glo cell viability assay, BXPC3 cells. Here is the method: as §1, §2, §3, §4, §5, §6, §7
In general terms: In ATP-based viability assays light output follows the ATP content of the culture.

Series [4] can be described thus: Stability of the drug product by visual observation and HPLC. It counts as physicochemical. Particulars: 50 mg/mL in 1M triethanolamine. On the procedure:
Bis-benzyl lipoate was provided in a concentrated form at a concentration of 50 mg/mL dissolved in 1M triethanolamine (TEA). The stability of the drug product was assessed by visual observation and by high-performance liquid chromatography (HPLC) assessment, performed at the beginning and the end of the study. […] The concentrated bis-benzyl lipoate solution was diluted to an appropriate concentration with 5% dextrose (D5W) to formulate 0.1, 1 and 10 mg/kg doses of bis-benzyl lipoate.

For series [5], the system named is Human H-460 Non Small Cell Lung Carcinoma (NSCLC) xenograft. The series can be described thus: Anti-tumor activity in mice with Human H-460 NSCLC xenograft. It counts as in vivo. Here is the method:
A study to assess the dose and dosing schedule effects on the anti-tumor activity of bis-benzyl lipoate was undertaken. More specifically, the pharmaceutical formulations of bis-benzyl lipoate of Comparative Example 1, i.e., bis-benzyl lipoate dissolved in 1:1 Tween 80:ethanol and diluted with saline, were tested in mice with Human H-460 Non Small Cell Lung Carcinoma (NSCLC) xenograft. The pharmaceutical formulations were administered intraperitoneally (IP), given 1× or 3× weekly. Administration of bis-benzyl lipoate began when the average tumor size of the mice was ˜300 mm^3. There were originally eight treatment groups, with seven mice in each group, investigating three doses (0.1, 1 and 10 mg/kg) and two dosing schedules, as shown in Table 1 below.
Specifically, both subgroups of each treatment group were treated with the same dose of bis-benzyl lipoate as in the original protocol; however, one of the two subgroups was treated with a pharmaceutical formulation of bis-benzyl lipoate according to Comparative Example 1, i.e., bis-benzyl lipoate dissolved in 1:1 Tween 80:ethanol and diluted with saline, and the other subgroup was treated with a pharmaceutical formulation of bis-benzyl lipoate according to Example 1, i.e., dissolved in TEA and diluted with D5W. […]
A general note: In xenograft studies the graft and the host belong to different species.

[6] abbreviates: salt formulation at 200 μM, 24 hrs.
Where [7] appears, read: salt formulation at 400 μM, 24 hrs.

A word on the viability: it is a per cent measure of how many cells are alive, often set against a control.

Where a name gives a salt, the structure may show the parent alone.

As to `O=C(O)CCCCC(CCSCc1ccccc1)SCc1ccccc1` (stereo not shown) [CPI-613 sodium salt], the “type of cell death (apoptosis or necrosis)” value in series [1] is on record as “higher number of cells in the state of apoptotic death versus the number of cells in the state of necrotic death”. Moreover, in series [2] (CPI-613 200 μM, CPI-613 to base 1:1, 24 hrs), the “A2780 Cell Viability (alkali salt formulations)” value is on record as “++++ (tumor cell viability of >10% up to 30%)”. Besides, the viability at 25 µM in series [2] (Homo sapiens, A2780, 24 h, read-out: A2780 Cell Viability (alkali salt formulations), CPI-613 25 μM, CPI-613 to base 1:1) is 70 to 95%; in series [3] (Homo sapiens, BXPC-3, 24 h, read-out: BXPC3 Cell Viability (alkali salt formulations), CPI-613 25 μM, CPI-613 to base 1:1), more than 95%. The viability at 75 µM in series [2] (Homo sapiens, A2780, 24 h, read-out: A2780 Cell Viability (alkali salt formulations), CPI-613 75 μM, CPI-613 to base 1:1) was in the range of 70 to 95%. Moreover, the viability at 100 µM is 70 to 95% in series [2] (Homo sapiens, A2780, 24 h, read-out: A2780 Cell Viability (alkali salt formulations), CPI-613 100 μM, CPI-613 to base 1:1) and 70 to 95% in series [3] (Homo sapiens, BXPC-3, 24 h, read-out: BXPC3 Cell Viability (alkali salt formulations), CPI-613 100 μM, CPI-613 to base 1:1). Besides, the viability at 400 µM in series [2] (Homo sapiens, A2780, 24 h, read-out: A2780 Cell Viability (alkali salt formulations), CPI-613 400 μM, CPI-613 to base 1:1) was less than 10%; in series [3] (Homo sapiens, BXPC-3, 24 h, read-out: BXPC3 Cell Viability (alkali salt formulations), CPI-613 400 μM, CPI-613 to base 1:1), less than 10%. The entries for the “cell kill in A2780 cells” value in series [2] (setting [6]) and in series [2] (setting [7]) were approximately 65% and “all the cells were killed”, respectively. Moreover, the “BXPC3 Cell Viability (alkali salt formulations)” value in series [3] (CPI-613 75 μM, CPI-613 to base 1:1, 24 hrs) is reported as “+ (tumor cell viability of >95%)”. Further, the viability at 200 µM in series [3] (Homo sapiens, BXPC-3, 24 h, read-out: BXPC3 Cell Viability (alkali salt formulations), CPI-613 200 μM, CPI-613 to base 1:1) was 30 to 70%. In addition, the entries for the “cell kill in BXPC3 cells” value in series [3] (setting [6]) and in series [3] (setting [7]) were approximately 50% and “all the cells were killed”, respectively.

In the case of `O=C(O)CCCCC(CCSCc1ccccc1)SCc1ccccc1` (stereo not shown) [bis-benzyl lipoate, 6,8-bis(benzylthio)octanoic acid], the “physical appearance (stability of the drug product, visual observation)” value in series [4] (beginning and end of the study) is reported as “did not change”. Moreover, in series [4] (both at the beginning and the end of the study), the “purity by HPLC (stability of the drug product)” value is on record as more than 99%. Further, the “anti-tumor effects compared to vehicle treatment” value in series [5] (Comparative Example 1 formulation (Tween 80/ethanol/saline), IP, 0.1, 1, 10 mg/kg, 1x or 3x weekly) is “did not induce any anti-tumor effects”. Besides, the “H-460 tumor size versus 10 mg/kg in Comparative Example 1 formulation” value in series [5] (Example 1 formulation (TEA/D5W), 0.1-10 mg/kg) was “may be smaller”.
